Experimental data taken from patent US9540337B2, “Gamma-glutamyl transpeptidase inhibitors and methods of use” (The Board of Regents of the University of Oklahoma, priority 2012, dated 2017).

How the values were obtained:
[1] = tested on: human GGT in NIH3T3^GGT cells; experiment: Catabolism of extracellular GSH by NIH3T3 cells transfected with human GGT; assay type: cell-based; settings: Compound 6 100 μM, 20 μM GSH, one hour; 60 min
Method: (§1) Cell Lines: 786-0 cells (ATCC CRL-1932), a human renal adenocarcinoma cell line, were grown in Dulbecco's Modified Eagle's Medium (DMEM) supplemented with 10% fetal bovine serum (FBS) and penicillin/streptomycin (50 units/ml, 50 μg/ml). NIH3T3 cells (ATCC CRL 1658) which are GGT-negative and NIH3T3 cells expressing hGGT [described previously were grown in DMEM/F12 media supplemented with 5% FBS and 0.2 mg/ml G418.
(§2) Catabolism of Extracellular GSH: 786-O and NIH3T3 cells were plated in 96-well plates at a density of 5×10^3 cells/well. After 24 hours, the media was changed to 100 μl cysteine-free DMEM/F12 supplemented with either 20 μM GSH or 20 μM GSH and 100 μM compound 6. After one hour, 50 μl of media was removed and immediately acidified with 5 μl ice-cold 43.1% 5-sulfosalicylic acid. After 10 minutes on ice, the solution was neutralized with 15 μl of 1 M NaOH. The GSH concentration was determined by the method of Tietze.

[2] = tested on: hGGT expressed on the surface of 786-0 cells; experiment: Catabolism of extracellular GSH by 786-O cells; assay type: cell-based, human; settings: 100 μM Compound 6, 20 μM GSH, one hour; 60 min
Method: as §1, §2

[3] = Cytotoxicity in dividing 786-O cells (MTT assay, 72 hours); assay type: cell-based, human; settings: human, 786-o cells, dividing 786-O cells, 72 hours; read-out: LD50
Method: as §1
(§3) Cytotoxicity Assays: 786-0 cells were plated at 10^3 cells/well in a 96-well plate in DMEM supplemented with 10% FBS and penicillin/streptomycin (50 units/ml, 50 μg/ml). After 24 hours, the media was changed to fresh media containing OU749 analogs. A 100 mM stock of OU749 and each of its analogs were made in DMSO then diluted in DMEM. Control wells were treated with equivalent concentrations of DMSO. Cell viability was determined 72 hours after the addition of the inhibitors by the MTT assay. For the toxicity of the OU749 and its analogs in 786-0 cells, all determinations were done in triplicate. The LD50 of each compound and the standard deviation (S.D.) were calculated with a Prism log (inhibitor) versus normalized response (variable slope) curve fit (Prism, GraphPad Software Inc., San Diego, Calif.).

786-0 cells = experiment: as above; assay type: cell-based, human
Method: as §1, §3

Human GGT1 (hGGT) [4] = target: T1, Human GGT1 (hGGT) (Homo sapiens, UniProt P19440); experiment: D-GpNA Hydrolysis Assay (release of pNA, 405 nm, pH 7.4)
T1 sequence (P19440 381-569 limits assumed): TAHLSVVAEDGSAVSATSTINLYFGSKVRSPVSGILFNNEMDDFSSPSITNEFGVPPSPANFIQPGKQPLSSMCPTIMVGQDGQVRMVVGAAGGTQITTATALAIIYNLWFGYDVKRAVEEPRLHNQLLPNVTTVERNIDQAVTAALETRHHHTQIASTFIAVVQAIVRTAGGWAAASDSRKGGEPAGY
T1 sequence (P19440 27-380 limits assumed): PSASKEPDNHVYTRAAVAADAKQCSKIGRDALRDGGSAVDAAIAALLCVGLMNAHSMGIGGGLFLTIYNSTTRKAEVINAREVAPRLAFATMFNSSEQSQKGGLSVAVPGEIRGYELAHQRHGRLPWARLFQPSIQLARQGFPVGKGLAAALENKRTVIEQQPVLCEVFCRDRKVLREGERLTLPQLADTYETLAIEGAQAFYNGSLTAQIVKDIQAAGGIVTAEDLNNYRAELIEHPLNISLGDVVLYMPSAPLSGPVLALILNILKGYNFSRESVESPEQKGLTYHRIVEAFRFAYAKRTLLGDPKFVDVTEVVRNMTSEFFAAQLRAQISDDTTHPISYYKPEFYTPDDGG
Method: (§4) Enzyme Isolation: Human GGT1 (P19440), lacking the transmembrane domain, was expressed in Pichia pastoris and isolated as previously described (14). […] One unit of GGT activity was defined as the amount of enzyme that released 1 μmol of paranitroaniline/min at 37° C. at pH 7.4 in the transpeptidation reaction.
The reaction was initiated with the addition of 19 mU GGT. The reaction was incubated at 37° C. and monitored continuously at 405 nm by a Bio-Rad model 680 microplate reader with Microplate Manager 5.2 software (Bio-Rad, Hercules, Calif.).
Data Analysis: Samples in each experiment were run in triplicate. Each inhibitor was evaluated in two or more independent experiments. Double reciprocal plots were generated to assess data quality and determine the correct rate equation for data fitting. Data were fitted using the proper rate equation and the Marquardt-Levenberg algorithm supplied with the Enzfitter program (BIOSOFT, Cambridge, UK). Kinetic parameters with standard errors were estimated using a simple weighting method.
Data adhering to Michaelis-Menten Kinetics were fitted to eq. 1. Data for initial rate patterns with D-, L-GpNA varied at different fixed levels of glygly were fitted to eq. […] Data for competitive and uncompetitive inhibition were fitted to eqs. 3 and 4. Data for the dependence of Vmax and Vmax/KD-GpNA on the concentration of activator were fitted using eq. 5 (25).
In eqs 1-6, Vmax are the initial and maximum rates, respectively, Ka and Kb are Michaelis constants for substrates A and B, respectively, and Kis and Kii are slope and intercept inhibition constants. In eq. 5, a is the value of Vmax or Vmax/KD-GpNA at zero activator/inhibitor, KID is the activation or inhibition constant, and KIN is a constant that causes the parameter to go to a constant value at infinite concentrations of X, the activator/inhibitor. The product a(KID/KIN) is the value of Vmax or Vmax/KD-GpNA at infinite activator/inhibitor (25). Data for noncompetitive inhibition were fitted to eq. 6. Data for the dependence of Vmax and Vmax/KD-GpNA on the concentration of activator were fitted using […].
as §4, with “hGGT” for “Human GGT1”, “described.” for “described (14).”, “reaction with L-GpNA.” for “reaction.”
D-GpNA Hydrolysis Assay: The assay was carried out as previously described. […] The reaction was initiated with the addition of 19 mU GGT as determined by the L-GpNA transpeptidation assay. The reaction was incubated at 37° C. and monitored continuously at 405 nm.

hGGT = target: T2, hGGT (Homo sapiens, UniProt P19440); experiment: L-Glutamate Release Assay (Hydrolysis of GSH); assay type: biochemical
T2 construct: lacking the transmembrane domain; made in house; host or cells: Pichia pastoris
T2 sequence (P19440 381-569 limits assumed): as the sequence (P19440 381-569 limits assumed) above
T2 sequence (P19440 27-380 limits assumed): as the sequence (P19440 27-380 limits assumed) above
Method: L-Glutamate Release Assay (Hydrolysis of GSH): This assay measures the production of glutamate from the hydrolysis of GSH by GGT enzyme and has been described in detail previously. The concentration of the substrate, GSH, was varied from 5 μM to 20 μM. The concentration of the inhibitors, OU749 and its analogs, were varied from 15.6 μM to 250 μM. The reaction was initiated with the addition of 10 mU hGGT. […] All compounds were also evaluated as inhibitors of glutamate dehydrogenase, the enzyme in the second half of the L-glutamate release assay. None of the compounds in this study inhibited glutamate dehydrogenase.

Human GGT1 (hGGT) [5] = target: T1, Human GGT1 (hGGT); experiment: L-GpNA Transpeptidation Assay with GlyGly as acceptor; assay type: biochemical; set-up: lacking the transmembrane domain; made in house; host or cells: Pichia pastoris; settings: Table 2
Method: Transpeptidation Reaction: The same assay buffer was used for both the hydrolysis reaction and the transpeptidation reaction. The transpeptidation reaction included 40 mM glycylglycine (glygly, Sigma, St. Louis, Mo.) as the acceptor. […] The concentration of L-GpNA was 3 mM for experiments in which the concentration of glygly was varied. To initiate the transpeptidation reaction, 4 mU GGT were added.
1. […] 3 and 4. […] 5 (25).
L-GpNA Transpeptidation Assay: The assay has been described previously. […] The concentration of L-GpNA was 3 mM for experiments in which the concentration of GlyGly was varied. To initiate the transpeptidation reaction, 4 mU GGT were added.

## COc1ccc(Cc2nnc(NS(=O)(=O)c3cccc4ccccc34)s2)cc1 [Compound 6]
[1]
  reduction of GSH metabolism in the media: 59%
[2]
  block of hGGT catabolism of extracellular GSH: 51%
[3]
  CC50 at 72 h: ~2100 µM
786-0 cells; LD50 ratio, 786-O cells
  fold less toxic (cytotoxic) than OU749: more than 16 fold
786-0 cells; dividing 786-O cells, 72 hours, 4320 min, read-out: LD50 (the source's name)
  CC50: 2090 ± 20 µM
Human GGT1 (hGGT) [4]; read-out: Hydrolysis D-GpNA Kii, D-GpNA substrate, Table 2
  Ki: 161 ± 4.5 µM
Human GGT1 (hGGT) [4]; relative to OU749
  fold less effective than OU749 in inhibiting hydrolysis of D-GpNA: 2-5 fold
hGGT; GSH hydrolysis, Table 6, read-out: GSH Kii
  Ki: 96 ± 2 µM
hGGT; relative to OU749
  fold more potent than OU749 in inhibiting GSH hydrolysis: 4 fold
Human GGT1 (hGGT) [5]; GlyGly varied, 3 mM L-GpNA, read-out: Transpeptidation GlyGly Kis
  Ki: 45.7 ± 3.4 µM
Human GGT1 (hGGT) [5]; L-GpNA varied, 40 mM GlyGly, read-out: Transpeptidation L-GpNA Kii
  Ki: 74.9 ± 3.6 µM
